Measurements: ChEMBL document CHEMBL5537145, “Design, synthesis and evaluation of novel UDCA-aminopyrimidine hybrids as ATX inhibitors for the treatment of hepatic and pulmonary fibrosis” (Eur J Med Chem, 2024)
The source made the active and inactive calls. The calls are words filed in the database; no cut-off is given here.

Key:
[1] = target: T1, Autotaxin (Homo sapiens, UniProt Q13822); assay: Inhibition of human ATX in using LPC as substrate by fluorescence based microplate reader assay
[2] = system: CCC-HPF-1; assay: Anti-pulmonary fibrosis activity against TGF-beta1 stimulated human CCC-HPF-1 cells assessed as reduction in Smad3 phosphorylation incubated for 48 hrs by Western blotting analysis; format: functional, cell-based; details: dose 5-20 µM
[3] = system: LX-2; assay: Effect on total Smad2 level in TGF-beta1 stimulated human LX2 cells at 5 to 20 uM incubated for 48 hrs by Western blotting analysis; format: functional, cell-based; details: dose 5-20 µM
[4] = system: LX-2; assay: Anti-hepatic fibrosis activity against TGF-beta1 stimulated human LX2 cells assessed as reduction in FN mRNA expression level at 5 to 20 uM incubated for 48 hrs by quantitative real-time PCR analysis; format: functional, cell-based; details: dose 5-20 µM
[5] = system: CCC-HPF-1; assay: Effect on total Smad3 level in TGF-beta1 stimulated human CCC-HPF-1 cells at 5 to 20 uM incubated for 48 hrs by Western blotting analysis; format: functional, cell-based; details: dose 5-20 µM
[6] = system: LX-2; assay: Anti-hepatic fibrosis activity against TGF-beta1 stimulated human LX2 cells assessed as inhibition of Smad2/3 nuclear translocation at 10 uM incubated for 48 hrs by DAPI staining based immunofluorescence analysis; format: functional, cell-based
[7] = system: LX-2; assay: Anti-hepatic fibrosis activity against TGF-beta1 stimulated human LX2 cells assessed as reduction in Smad2 phosphorylation incubated for 48 hrs by Western blotting analysis; format: functional, cell-based; details: dose 5-20 µM
[8] = system: LX-2; assay: Effect on total Smad3 level in TGF-beta1 stimulated human LX2 cells at 5 to 20 uM incubated for 48 hrs by Western blotting analysis; format: functional, cell-based; details: dose 5-20 µM
[9] = system: CCC-HPF-1; assay: Cytotoxicity against human CCC-HPF-1 cells assessed as reduction in cell viability at 2.5 to 80 uM incubated for 48 hrs by MTT assay; format: toxicity, cell-based; details: ccc-hpf-1, 48 h, dose 2.5-80 µM
[10] = system: LX-2; assay: Cytotoxicity against human LX2 cells assessed as reduction in cell viability at 2.5 to 80 uM incubated for 48 hrs by MTT assay; format: toxicity, cell-based; details: lx-2, 48 h, dose 2.5-80 µM
[11] = system: LX-2; assay: Anti-hepatic fibrosis activity against TGF-beta1 stimulated human LX2 cells assessed as reduction in COL1A1 mRNA expression level at 5 to 20 uM incubated for 48 hrs by quantitative real-time PCR analysis; format: functional, cell-based; details: dose 5-20 µM
[12] = system: CCC-HPF-1; assay: Anti-pulmonary fibrosis activity against TGF-beta1 stimulated human CCC-HPF-1 cells assessed as reduction in COL1A1 protein expression level at 5 to 20 uM incubated for 48 hrs by Western blotting analysis; format: functional, cell-based; details: dose 5-20 µM
[13] = system: CCC-HPF-1; assay: Anti-migratory activity against TGF-beta1 stimulated human CCC-HPF-1 cells at 10 uM incubated for 24 hrs by light microscopic analysis; format: functional, cell-based
[14] = system: LX-2; assay: Anti-migratory activity against TGF-beta1 stimulated human LX2 cells at 10 uM incubated for 24 hrs by light microscopic analysis; format: functional, cell-based
[15] = system: CCC-HPF-1; assay: Anti-pulmonary fibrosis activity against TGF-beta1 stimulated human CCC-HPF-1 cells assessed as reduction in Smad2 phosphorylation incubated for 48 hrs by Western blotting analysis; format: functional, cell-based; details: dose 5-20 µM
[16] = system: CCC-HPF-1; assay: Anti-pulmonary fibrosis activity against TGF-beta1 stimulated human CCC-HPF-1 cells assessed as reduction in alpha-SMA mRNA expression level at 5 to 20 uM incubated for 48 hrs by quantitative real-time PCR analysis; format: functional, cell-based; details: dose 5-20 µM
[17] = system: CCC-HPF-1; assay: Anti-pulmonary fibrosis activity against TGF-beta1 stimulated human CCC-HPF-1 cells assessed as reduction in COL1A1 mRNA expression level at 5 to 20 uM incubated for 48 hrs by quantitative real-time PCR analysis; format: functional, cell-based; details: dose 5-20 µM
[18] = system: CCC-HPF-1; assay: Anti-pulmonary fibrosis activity against TGF-beta1 stimulated human CCC-HPF-1 cells assessed as inhibition of Smad2/3 nuclear translocation at 10 uM incubated for 48 hrs by DAPI staining based immunofluorescence analysis; format: functional, cell-based
[19] = system: LX-2; assay: Anti-hepatic fibrosis activity against TGF-beta1 stimulated human LX2 cells assessed as reduction in alpha-SMA mRNA expression level at 5 to 20 uM incubated for 48 hrs by quantitative real-time PCR analysis; format: functional, cell-based; details: dose 5-20 µM
[20] = system: CCC-HPF-1; assay: Anti-pulmonary fibrosis activity against TGF-beta1 stimulated human CCC-HPF-1 cells assessed as reduction in FN protein expression level at 5 to 20 uM incubated for 48 hrs by Western blotting analysis; format: functional, cell-based; details: dose 5-20 µM
[21] = system: CCC-HPF-1; assay: Anti-pulmonary fibrosis activity against TGF-beta1 stimulated human CCC-HPF-1 cells assessed as reduction in FN mRNA expression level at 5 to 20 uM incubated for 48 hrs by quantitative real-time PCR analysis; format: functional, cell-based; details: dose 5-20 µM
[22] = system: CCC-HPF-1; assay: Anti-pulmonary fibrosis activity against TGF-beta1 stimulated human CCC-HPF-1 cells assessed as reduction in alpha-SMA protein expression level at 5 to 20 uM incubated for 48 hrs by Western blotting analysis; format: functional, cell-based; details: dose 5-20 µM
[23] = target: T1, Autotaxin; assay: Potency index, ratio of GLPG-1690 IC50 to test compound IC50 for inhibition of human ATX in using LPC as substrate by fluorescence based microplate reader assay
[24] = system: CCC-HPF-1; assay: Effect on total Smad2 level in TGF-beta1 stimulated human CCC-HPF-1 cells at 5 to 20 uM incubated for 48 hrs by Western blotting analysis; format: functional, cell-based; details: dose 5-20 µM
[25] = system: LX-2; assay: Anti-hepatic fibrosis activity against TGF-beta1 stimulated human LX2 cells assessed as reduction in FN protein expression level at 5 to 20 uM incubated for 48 hrs by Western blotting analysis; format: functional, cell-based; details: dose 5-20 µM
[26] = system: LX-2; assay: Anti-hepatic fibrosis activity against TGF-beta1 stimulated human LX2 cells assessed as reduction in alpha-SMA protein expression level at 5 to 20 uM incubated for 48 hrs by Western blotting analysis; format: functional, cell-based; details: dose 5-20 µM
[27] = system: LX-2; assay: Anti-hepatic fibrosis activity against TGF-beta1 stimulated human LX2 cells assessed as reduction in Smad3 phosphorylation incubated for 48 hrs by Western blotting analysis; format: functional, cell-based; details: dose 5-20 µM
[28] = system: LX-2; assay: Anti-hepatic fibrosis activity against TGF-beta1 stimulated human LX2 cells assessed as reduction in COL1A1 protein expression level at 5 to 20 uM incubated for 48 hrs by Western blotting analysis; format: functional, cell-based; details: dose 5-20 µM

In the case of `C[C@H](CCC(=O)N1CCc2nc(NCCc3ccccc3F)ncc2C1)[C@H]1CC[C@H]2[C@@H]3[C@@H](O)C[C@@H]4C[C@H](O)CC[C@]4(C)[C@H]3CC[C@]12C`, the IC50 [1] is reported as 15.6 nM.

For `C[C@H](CCC(=O)N1CCc2nc(NCCc3cccc(F)c3)ncc2C1)[C@H]1CC[C@H]2[C@@H]3[C@@H](O)C[C@@H]4C[C@H](O)CC[C@]4(C)[C@H]3CC[C@]12C`, the IC50 [1] was 41.4 nM.

With `C[C@H](CCC(=O)N1CCc2nc(NCCc3cccc(Cl)c3)ncc2C1)[C@H]1CC[C@H]2[C@@H]3[C@@H](O)C[C@@H]4C[C@H](O)CC[C@]4(C)[C@H]3CC[C@]12C` the IC50 [1] was 165 nM.

`C[C@H](CCC(=O)N1CCc2nc(NCCc3ccncc3)ncc2C1)[C@H]1CC[C@H]2[C@@H]3[C@@H](O)C[C@@H]4C[C@H](O)CC[C@]4(C)[C@H]3CC[C@]12C` was tested, and the IC50 [1] was 35.6 nM.

In the case of `C[C@H](CCC(=O)N1CCc2nc(NC3Cc4ccccc4C3)ncc2C1)[C@H]1CC[C@H]2[C@@H]3[C@@H](O)C[C@@H]4C[C@H](O)CC[C@]4(C)[C@H]3CC[C@]12C`, the Activity [2] is reported as “Dose-Dependent Effect”, the Activity [3] is reported as “inactive” and the Activity [4] is reported as “Active”. For the same compound, the Activity [5] was “inactive”, the Activity [6] was “Active” and the IC50 [1] was 7.62 nM. The Activity [7] was “Dose-Dependent Effect”, the Activity [8] was “inactive” and the Activity [9] was “Non-Toxic”. The Activity [10] was “Non-Toxic”, the Activity [11] was “Active” and the Activity [12] was “Active”. The Activity [13] was “Active”, the Activity [14] was “Active” and the Activity [15] was “Dose-Dependent Effect”. For the same compound, the Activity [16] was “Active”, the Activity [17] was “Active” and the Activity [18] was “Active”. The Activity [19] was “Active”, the Activity [20] was “Active” and the Activity [21] was “Active”. For the same compound, the Activity [22] was “Active”, the Ratio IC50 [23] was 9 and the Activity [24] was “inactive”. The Activity [25] was “Active”, the Activity [26] was “Active” and the Activity [27] was “Dose-Dependent Effect”. The Activity [28] was “Active”.

Compound `C[C@H](CCC(=O)N1CCc2nc(NCCc3ccccc3Cl)ncc2C1)[C@H]1CC[C@H]2[C@@H]3[C@@H](O)C[C@@H]4C[C@H](O)CC[C@]4(C)[C@H]3CC[C@]12C` has an IC50 [1] of 102 nM.

Compound `C[C@H](CCC(=O)N1CCc2nc(NC3Cc4ccc(Br)cc4C3)ncc2C1)[C@H]1CC[C@H]2[C@@H]3[C@@H](O)C[C@@H]4C[C@H](O)CC[C@]4(C)[C@H]3CC[C@]12C` (some centres undefined) has an IC50 [1] of 15.4 nM.

Work on `Cc1ccc(CCNc2ncc3c(n2)CCN(C(=O)CC[C@@H](C)[C@H]2CC[C@H]4[C@@H]5[C@@H](O)C[C@@H]6C[C@H](O)CC[C@]6(C)[C@H]5CC[C@]24C)C3)cc1` yielded an IC50 [1] of 168 nM.

`C[C@H](CCC(=O)N1CCc2nc(NCCc3ccc(Br)cc3)ncc2C1)[C@H]1CC[C@H]2[C@@H]3[C@@H](O)C[C@@H]4C[C@H](O)CC[C@]4(C)[C@H]3CC[C@]12C` gave an IC50 [1] of 46.3 nM.

Work on `C[C@H](CCC(=O)N1CCc2nc(NCCc3ccccc3)ncc2C1)[C@H]1CC[C@H]2[C@@H]3[C@@H](O)C[C@@H]4C[C@H](O)CC[C@]4(C)[C@H]3CC[C@]12C` yielded an IC50 [1] of 57.8 nM.

`C[C@H](CCC(=O)N1CCc2nc(NCCc3c[nH]c4ccccc34)ncc2C1)[C@H]1CC[C@H]2[C@@H]3[C@@H](O)C[C@@H]4C[C@H](O)CC[C@]4(C)[C@H]3CC[C@]12C` was tested, and the IC50 [1] was 335 nM.

In the case of `C[C@H](CCC(=O)O)[C@H]1CC[C@H]2[C@@H]3[C@@H](O)C[C@@H]4C[C@H](O)CC[C@]4(C)[C@H]3CC[C@]12C` [URSODIOL], the IC50 [1] is reported as 9260 nM.
